The values below are quoted from earlier work in patent US20220265833A1, “ASPARTIC PROTEASE-TRIGGERED ANTIFUNGAL HYDROGELS” (priority 2017, published 2022).

Square brackets hold non-standard residues; d marks the D form. Ends that are not written are not given here. Phe(4-NO2) = N[C@@H](Cc1ccc([N+](=O)[O-])cc1)C(=O)O

The subject of this data set is Saps.
For “LAF(p-NO2)FGAPK (LA[Phe(4-NO2)]FGAPK) [LFFK.AG]”, the “rank of peptide-Sap catalytic efficiency” value was “In order of decreasing catalytic efficiencies, these peptides were: LFFK.AG, LFFK.A2, and LFFK”.

Regarding “LAF(p-NO2)FLAPK (LA[Phe(4-NO2)]FLAPK) [LFFK.A2]”, the “rank of peptide-Sap catalytic efficiency” value was “In order of decreasing catalytic efficiencies, these peptides were: LFFK.AG, LFFK.A2, and LFFK”.

Turning to “LRF(p-NO2)↓FLAPK (LR[Phe(4-NO2)]FLAPK) [LFFK]”, the “rank of peptide-Sap catalytic efficiency” value is “In order of decreasing catalytic efficiencies, these peptides were: LFFK.AG, LFFK.A2, and LFFK”.
